Article PMC6391964, “Radical‐Mediated Thiol‐Ene Strategy: Photoactivation of Thiol‐Containing Drugs in Cancer Cells” (Angewandte Chemie (International Ed. in English), 2018)
Read-outs that look alike come from different tables or passages of the source.

Key:
[1] = system: HCT-116 colon carcinoma cells; assay type: cell-based, human
Protocol: (§1) T a bl e S4. The parallel artific ial membrane permeability assay (PAM PA). […]
(§2) […] The cel l s were s pl it before reac hi ng confl uence w i t h 0. 05% T ry ps i n-ED TA (G i bco™, The rmo Fisher Scientific).
(§3) C ell v ia bility a ssa y
HC T-116 cells suspended in McCoy’s 5A m edium were plated in 96 -w el l pl at es (200 μ L, 2, 500 cells/well), incubated (37 °C, 5% CO2), and 24 h later treated with various concentrations of compou nds or s ol v ent cont rol (0. 25% D M SO). […] […] Cell viability w as cal cul at ed accordi ng t o t he manufact u rer’ s i ns t ruct i ons (Promeg a).
T a bl e S5. GI50 of the L argazole, L argazole Thiol and Stapled L argazole

[2] = Parallel artificial membrane permeability assay (PAMPA); assay type: in vitro ADME; settings: PAMPA Evolution, Pion GIT-0 phospholipid mixture, ~50 μM, ~15 h, UV read-out, average of quadruplicates
Protocol: […] […] The effect i v e permeability, Pe, of each compound was measured at the customer -s peci fi ed pHs i n t he dono r compart ment us i ng l ow-bi ndi ng , l ow UV P ri s ma bu ffer. […] The propri et ary s cav eng er mi mi cs s erum prot ei ns and bl ood ci rcul at i on, t hus creat i ng si nk condi t i ons .
I n t he defaul t p rot oc ol t he a queous s ol ut i ons of s t udi ed com poun ds are p repared by di l ut i ng and thoroughly mixing 3 μL of DMSO stock in 600μL of Prisma HT buffer. Final concentration of org ani c s ol v ent (D M SO) i n aqueous buf fer i s ≤ 0. 5 % (v /v ).
The PAM PA s andw i ch was assembl ed and al l owed to i ncubat e for ~15 ho urs . The s ol ut i ons i n t he don or compart ment w ere un- stirred within du ration of t he ex peri ment . Thus , t he t hi ck nes s of t he aqueous bounda ry l ay er ex pect ed t o be about 1000 μ m. […] Ket oprofen, Verapmi l and P ropan ol ol w ere us ed as […]
[…] […] Act ual pH t he bu ffers w as 7. 40 ± 0. 05.
S t o c k sol u ti ons preparation
The samples were diluted with an organic solvent (DMSO) to prepare stock s ol ut i ons at concent rat i on ~10 mM . […] 40 […]
as §1, §2, §3
HC T-116 cells suspended in McCoy’s 5A m edium were plated in 96 -w el l pl at es (200 μ L, 2, 500 […]

HCT-116 cells = experiment: Photoactivation of stapled largazole in HCT-116 cells (cell viability); assay type: cell-based, human; settings: stapled largazole 150 nM premixed with DPAP 1.5 μM, UV 365 nm, 80 W, 15 min, then 48 h, compared with non-irradiation, stapled largazole and largazole thiol groups
Protocol: (§4) Viability Viability Viability
(§5) DPAP Toxicity DPAP+64W-15min DPAP+80W-15min
(§6) Figu r e S7. The DPAP c onc entration and UV c ondition Sc reening. a) The cytotoxicity of DPAP without UV; b) The cytotoxicity of DPAP with UV, 365 nm, 64W, 15 min; c) The cytotoxicity of DPAP with UV, 365 nm, 80W, […]
(§7) P hotoa ctiv a tion of S ta pled La r g a zole in H C T-116 cells
(§8) Plate Cells Compounds UV CellTiter Blue Detect
(§9) Sch eme S6. The phot oact ivat ion of St apled L argazole in HC T- 116 c ells.
(§10) […] […] […] Aft er a not her 48 h of i ncubat i on, t he cel l v i abil it y w as measured according to the general method a bove.
(§11) H istone D ea cety la se ( H D AC ) Activ ity Assa y ( Fluor om etr ic) Following the measurement of the cell viability, the plates were washed with cold PBS for three t i mes. […]
(§12) (also on this page, place not known: Condition Screening Figure concentration condition Screening. Photoactivation Stapled Largazole HCT-116 Scheme photoactivation Stapled Largazole HCT-116 cells. HCT-116 cells plated in 200 μL medium per well density 2,500 cells/well grown in plates. incubated oC, 5% CO2). After h, cells various (Largazole, Largazole Thiol Stapled Largazole nM, 1.5 μM) solvent control (0.25% DMSO). group irradiated with light W) min. After another of incubation, viability was above. […]

HDAC = experiment: Fluorometric HDAC activity assay with HCT-116 cell lysates; assay type: cell-based, human; settings: UV-irradiated premixed group of stapled largazole and DPAP, relative to control groups and non-irradiation group, Ex/Em 355/460 nm
Protocol: as §4, §5, §6, §7, §8, §9, §10, §11
as §12, with “min.” for “min. After another of incubation, viability was above.”
(Thermo Sci ent i fi c™). […] Aft er be i ng i ncubat ed fo r an ot her 30 mi n at R T, t he fl uores cence i nt ens i t y w as read at Ex /Em = 35 5 n m / 4 60 nm. […]

[3] = UV-initiated thiol-ene decaging reaction (HPLC); assay type: physicochemical; settings: 1-thio-β-D-glucose tetraacetate and DPAP, UV irradiation 365 nm, 15 minutes; HPLC trace
From the text: Inspired by this AFCT reaction, we hypothesized that the isobutylene structure could be used as a bridging graft to cage thiol‐containing drugs and allow further controlled activation of anticancer drugs by means of a radical‐mediated thiol‐ene mechanism (Scheme 1). […] Our research began with N‐tert‐butoxycarbonyl‐L‐cysteine methyl ester (N‐Boc‐Cys‐OMe 1), which was protected with 3‐bromo‐2‐bromomethyl‐1‐propene (Table 1 and Supporting Information). The stapled cysteine 2 was then screened under a series of reaction conditions. Firstly, different PIs were tested with the same amounts of thiol source, 1‐thio‐β‐D‐glucose tetraacetate (4AcGlcSH), and 2 under irradiation at 365 nm. […] However, the other PI, 2,2‐dimethoxy‐2‐phenylacetophenone (DPAP) successfully promoted the reaction and released 1. β‐Mercaptoethanol (BME) was also tested as the thiol compound under the same reaction conditions. […] However, when N,N‐dimethylformamide (DMF) was used as solvent, two mixed disulfides resulting from the reaction between the 1‐thioglucose and N‐Boc‐cysteine methyl ester 1′ were observed. […]
The cyclic depsipeptide largazole is a marine natural product, and its derivatives are recognized as promising potential anticancer therapeutics. […] Next, the growth‐inhibitory activity was evaluated with human colon carcinoma cell lines, HCT‐116 (Figure 2 c). […]

| Structure (SMILES) | GI50 ([1]; 48 h) [µM] | logPe (Avg. logPe) ([2]; donor Prisma HT buffer pH 7.4, acceptor sink buffer pH 7.4, DMSO <0.5%, unstirred) | Papp ([2]; donor Prisma HT buffer pH 7.4, acceptor sink buffer pH 7.4, DMSO <0.5%, unstirred, read-out: Pe, effective permeability (Avg. Pe)) [nm/s] | Avg. %R, membrane retention ([2]; donor pH 7.4, by mass balance) [%] | GI50 ([1]; HCT-116 cells, 48 h treatment, CellTiter-Blue, read-out: GI50) [µM] | Cell viability after photoactivation (HCT-116 cells) | HDAC activity (fluorescence) after photoactivation (HDAC) | Conversion in the decaging reaction [3] |
| --- | --- | --- | --- | --- | --- | --- | --- | --- |
| CC(C)[C@@H]1NC(=O)[C@]2(C)CSC(=N2)c2csc(n2)CNC(=O)C[C@@H](/C=C/CCS)OC1=O [largazole thiol] | 0.185 |  |  |  |  |  |  |  |
| CCCCCCCC(=O)SCC/C=C/[C@@H]1CC(=O)NCc2nc(cs2)C2=N[C@@](C)(CS2)C(=O)N[C@@H](C(C)C)C(=O)O1 [largazole] | 0.00143 |  |  |  |  |  |  |  |
| C=C(CSCC/C=C/[C@@H]1CC(=O)NCc2nc(cs2)C2=N[C@@](C)(CS2)C(=O)N[C@@H](C(C)C)C(=O)O1)CSCC/C=C/[C@@H]1CC(=O)NCc2nc(cs2)C2=N[C@@](C)(CS2)C(=O)N[C@@H](C(C)C)C(=O)O1 [stapled largazole] |  | −5.29 | 53 | 10 | 0.408 | significantly lower cell viability | significant decrease of fluorescence | Full conversion |
